From US20240108740A1, “THERAPEUTIC COMPOSITIONS INCLUDING SPN10 AND USES THEREOF” (Stealth BioTherapeutics Inc., priority 2022, published 2024) come the findings set out here.

The assay deals with Sprague-Dawley rats. The experiment in a line: Example 32: mitochondrial dysfunction in rats fed a high-fat diet. As to conditions: rat, in vivo. The protocol:
Animals and reagents. Thirty male Sprague-Dawley rats will be obtained from Charles River Laboratory (Wilmington, MA) and housed in a temperature (22° C.) and light controlled room with free access to food and water. Twenty of the animals will be maintained on a high (60%) fat diet (Research Dyets, Bethlehem, PA). Skeletal muscle will be obtained from anesthetized animals (100 mg/kg i.p. ketamine-xylazine). After surgery, animals will be sacrificed by cervical dislocation while anesthetized. Amplex Red Ultra reagent will be obtained from Molecular Probes (Eugene, OR). Stigmatellin and horseradish peroxidase (HRP) will be obtained from Fluka Biochemika (Buchs, Switzerland). All other chemicals will be purchased from Sigma-Aldrich (St. Louis, MO). […]
Mitochondrial respiration and H2O2 production measurements. […] Mitochondrial H2O2 production will be measured at 30° C. during state 4 respiration in buffer Z (10 μg/mL oligomycin) by continuously monitoring oxidation of Amplex Red using a Spex Fluoromax 3 (Jobin Yvon, Ltd.) spectrofluorometer with temperature control and magnetic stirring at >1000 rpm. […] After baseline fluorescence (reactants only) is established, the reaction will be initiated by addition of a permeabilized fiber bundle to 300 μL of buffer Z containing 5 μM Amplex Red and 0.5 U/mL HRP, with succinate at […]. […]

Residues, ends and D or L forms follow the SMILES beside them.

For the compound `N=C(N)NCCC[C@H](NC(=O)[C@@H](N)Cc1c[nH]c2ccccc12)C(=O)N[C@@H](Cc1c[nH]c2ccccc12)C(=O)N[C@@H](CCCCN)C(N)=O` [SPN10, H-L-Trp-L-Arg-L-Trp-L-Lys-NH2] (H-WRWK-NH2), the “mitochondrial dysfunction under a high-fat diet” value was “reduce mitochondrial dysfunction”.
